# Experimental data published in patent publication US6286513A, “Methods for treating superficial bladder carcinoma” (priority 1998, dated 2001).
# Columns and labels:
# [1] = Overall bladder wall exposure to MMC: urinary AUC, C^n×T, urine production and pH (Table 3); assay type: in vivo, patients; conditions: for Urinary AUC / Urinary C^n × T: mean ± standard deviation; for Urinary C^n × T: n = 1.24
# Source text: A commonly used measure of drug exposure for anticancer agent is the product of exposure concentration and duration, or AUC (area under the curve). […] The drug exposure in the urinary bladder can be determined from the drug concentration in the urine and can serve as a measure of exposure to the tumor tissue.
# [2] = tested on: multifocal Ta, T1, Tis tumors; test: Recurrence in patients with multifocal tumors (Example 3, FIG. 9); assay type: in vivo
# Method: Sixty-five of patients from whom 3 or more Ta, T1,or Tis tumors had been removed were treated weekly for six weeks with the high efficacy therapy as described above in example 1 and 52 patients from whom 3 or more Ta, T1, or Tis tumors had been removed were treated weekly for six weeks with standard MMC intravsical therapy as described in example 1. All patients received the follow-up described in example 1.
# [3] = tested on: Ta tumors; test: Recurrence in patients with Ta tumors (Kaplan-Meier); assay type: in vivo
# Source text: The Kaplan-Meier Curve is a conventional tool used to project treatment outcome such as the % of patients who remain alive or free of disease at a certain time interval. (Martin Bland, Introduction to Medical Statistics (1994) Oxford Press). The Kaplan Meier Curve was used to compare the customary experimental therapy to the high efficacy therapy. When compared to the customary experimental therapy, the high efficacy therapy increased the percentage of all patients who are projected to remain recurrence-freefor longer than 5 years from 20 to 41%. The improvement was similar for patients with T1 tumors which were growing in the deeper bladder tissue layers (i.e. increase from 16% to 44%) and for patients with Ta tumors which were growing in the urothelial surface of the bladder (i.e. increase from 20% to 37%).
# [4] = in vitro, previous results; cited from earlier work
# [5] = tested on: low grade tumors (grade I and grade II); test: Recurrence in patients with low grade tumors (Example 5); assay type: in vivo
# Method: Eighty-one patients from whom low grade tumors (i.e., grade I and grade II) had been removed were treated weekly for six weeks with the high efficacy therapy as described above in example 1 and 64 patients from whom low grade tumors were had been removed were treated weekly for six weeks with the customary experimental therapy as described in example 1. All patients were evaluated as described in example 1. The median time to recurrence was 637 days for patients treated by the high efficacy treatment versus 339 days for patients treated by the customary experimental treatment. The projected 5-year recurrence free value is 35% for the high efficacy treatment and 21% for the customary experimental treatment.
# [6] = tested on: recurrent Ta, T1 or Tis tumors; test: Recurrence in patients with recurrent tumors (Example 2, FIG. 12); assay type: in vivo; conditions: for median time to recurrence / projected 5-year tumor recurrence free rate: recurrent tumors
# Method: Seventy-seven patients from whom recurrent Ta, T1 or Tis tumors had been resected were treated weekly for six weeks with the high efficacy therapy as described above in example 1 and 68 patients from whom recurrent Ta, T1 or Tis tumors had been resected were treated by the customary experimental therapy as described in example 1. All patients had undergone at least one previous round of therapy, to several previous rounds of resection plus chemotherapy consisting of treatment with BCG, MMC, doxorubicin and doxorubicin and cisplatin. For example, 44 patients treated with the high efficacy treatment and 42 patients treated with the customary experimental method had at least two tumor resections. Thirty-eight patients in each of the two treatment arms fad received previous tumor resections plus at least one series of adjuvant chemotherapy. All patients were evaluated as described in example 1.
# [7] = tested on: high grade tumors (grade III); test: Recurrence in patients with high grade tumors (Example 6); assay type: in vivo
# Method: Twenty-seven patients from whom high grade tumors (i.e., grade III)had been removed were treated weekly for six weeks with the high efficacy therapy as described above in example 1 and 23 patients from whom high grade tumors had been removed were treated weekly for six weeks with the customary experimental therapy as described in example 1. All patients were evaluated as described in example 1. The median time to recurrence was not reached for patients treated by the high efficacy treatment versus 179 days for patients treated by the customary experimental treatment. The projected 5-year recurrence free value is 52% for the patients receiving the high efficacy treatment and 19% for the customary experimental treatment.
# [8] = tested on: Tis tumors; test: Recurrence in patients with Tis tumors (Example 4); assay type: in vivo
# Method: Ten patients from whom one or more foci of Tis had been removed were treated weekly for six weeks with the high efficacy therapy as described above in example 1 and 12 patients from whom one or more foci of Tis had been removed were treated weekly for six with the standard MMC intravesical therapy as described in example 1. […] The projected 5-year recurrence free rate is 43% for the high efficacy treatment and 19% for the standard treatment.
# [9] = Blood levels of MMC during high efficacy therapy; assay type: in vivo, patients
# [10] = high efficacy vs customary experimental therapy
# [11] = customary experimental treatment
smiles,measurement,setting,value
COC12C(COC(N)=O)C3=C(C(=O)C(C)=C(N)C3=O)N1CC1NC12 (stereo not shown) [MMC],Urinary AUC,[1]; customary experimental therapy,24.2 ± 14.7 mg·min/mL
same,Urinary C^n × T,[1]; customary experimental therapy,97.2 ± 77.08 mg^n.min/ml
same,Urinary AUC,[1]; high efficacy therapy,57.6 ± 37.2 mg·min/mL
same,Urinary C^n × T,[1]; high efficacy therapy,291 ± 283 mg^n.min/ml
same,"average drug exposure measured as AUC, high efficacy relative to customary",[1]; [10],2 times
same,"average drug exposure measured as C^n×T, high efficacy relative to customary",[1]; [10],2.4 times
same,projected 5-year recurrence free rate,"[2]; customary experimental therapy, multifocal tumors",17%
same,projected 5-year recurrence free rate,"[2]; high efficacy therapy, multifocal tumors",32%
same,"delaying and preventing tumor recurrence, vs customary therapy","[2]; high efficacy therapy, multiple tumors",more effective
same,median time to tumor recurrence,"[2]; standard treatment (so in the source), multifocal tumors",488 days
same,percentage of patients projected to remain recurrence-free for longer than 5 years,[3]; customary experimental therapy,20%
same,percentage of patients projected to remain recurrence-free for longer than 5 years,[3]; high efficacy therapy,37%
same,relative importance of drug concentration and treatment duration,[4],the drug concentration is more important than treatment duration
same,median time to recurrence,[5]; [11],339 days
same,projected 5-year recurrence free value,[5]; [11],21%
same,median time to recurrence,[5]; high efficacy treatment,637 days
same,projected 5-year recurrence free value,[5]; high efficacy treatment,35%
same,median time to recurrence,[6]; customary experimental therapy,339 days
same,projected 5-year tumor recurrence free rate,[6]; customary experimental therapy,26%
same,median time to recurrence,[6]; high efficacy therapy,754 days
same,projected 5-year tumor recurrence free rate,[6]; high efficacy therapy,39%
same,"delaying and preventing tumor recurrence, vs customary therapy","[6]; high efficacy therapy, recurrent tumors despite other adjuvant therapies",more effective
same,median time to recurrence,[7]; [11],179 days
same,projected 5-year recurrence free value,[7]; [11],19%
same,median time to recurrence,[7]; high efficacy treatment,not reached
same,projected 5-year recurrence free value,[7]; high efficacy treatment,52%
same,(median time to recurrence; words missing in text),[8]; [11],106 days
same,projected 5-year recurrence free rate,[8]; high efficacy treatment,43%
same,projected 5-year recurrence free rate,[8]; standard treatment,19%
same,"blood levels of MMC, in most instances",[9],less than 5 ng/ml
same,"levels of MMC in the blood of the patients, upper bound",[9],≤ 50 ng/mL
